Results reported in publication PMC11823609, “Advancements in the fight against globally distributed OXA-48 carbapenemase: evaluating the new generation of carbapenemase inhibitors” (Antimicrobial Agents and Chemotherapy, 2025).
In brackets after ≈: the same amount, converted by molar mass. Like-named read-outs stand apart in the source and are kept apart here.

What was measured:
E. coli TG1 = test: microbe, parasite or virus in culture; format: cell-based; conditions: Escherichia coli
Protocol: (§1) The MICs of each of the individual compounds (antibiotics or inhibitors) were also determined. The MICs were determined for the E. coli isogenic expressing OXA-48 (and both OXA-48 and CTX-M-14) to assess their activity against the carbapenemase; MICs were also determined for the 18 Enterobacterales clinical isolates in order to evaluate the new inhibitors against also their resistance concomitant mechanisms. The MICs were determined in triplicate experiments, and the EUCAST 13.0 clinical breakpoints were followed (http://www.eucast.org/clinical_breakpoints).
(§2) For comparative evaluation of the activity of each inhibitor alone against the carbapenemase OXA-48, all inhibitors (at 4 mg/L) were tested in the presence of a carbapenem (ertapenem, adequate substrate) and a cephalosporin (ceftazidime, poor substrate) as reporter substrates. This prevented any possible masking effect produced by the different partner antibiotics. These assays were also performed with isogenic transformants and clinical isolates.

[1] = tested on: E. coli HB4 ΔompC/F (CTX-M-14); test: microbe, parasite or virus in culture; format: cell-based, Escherichia coli
[2] = tested on: E. coli TG1 and HB4 transformants; test: MIC summary over E. coli transformants; format: cell-based, Escherichia coli; conditions: for effect of ertapenem/BLI on bacterial growth / decrease of ertapenem MIC with BLI: OXA-48-producing E. coli hosts, BLI 4 mg/L; for MICs of inhibitor alone (range over strains): TG1 and HB4 E. coli
From the text: The E. coli HB4 strain was used to gain a more complete perspective, by evaluating the involvement in resistance of a low permeability background with the carbapenemase OXA-48, as well as coproduction of an ESBL and the carbapenemase; thus, the ESBL CTX-M-14 and OXA-48 were cloned together and separately into E. coli HB4. The characteristics of these strains and transformants are summarized in Table S1, and the cloning procedures are outlined in the supplemental methods.
as §1, §2

[3] = tested on: OXA-48-producing Enterobacterales clinical isolates; test: MIC summary over clinical isolates; format: cell-based
Protocol: The efficacy of these new BLIs was also evaluated against 18 genetically diverse WGS-characterized collection of OXA-48-positive Enterobacterales recovered as part of the Carbapenem-resistant Enterobacterales Genome Database Project (https://genomes.cnag.cat/incredble) listed in Table S2 ([13]). Combinations of clinical isolates (five pairs of Klebsiella pneumoniae, two pairs of Enterobacter cloacae, and two pairs of E. coli) were chosen for analysis: (i) nine strains carrying ESBLs; and (ii) nine strains (genetically closer available strains) without ESBLs.
as §1, §2

OXA-48 [4] = biological target: T1, OXA-48 (Klebsiella pneumoniae, UniProt Q6XEC0); test: Steady-state inhibition constant (Ki app), nitrocefin reporter; format: biochemical; parameters: These primers amplified the blaOXA-48 gene without the signal peptide; GST (glutathione S-transferase, pGEX-6P-1) (N, cleaved yes); made in house; host or cells: E. coli BL21; conditions: nitrocefin 300 µM reporter, 25 °C, pH 7.4
Protocol: (§3) OXA-48 was cloned, produced, and purified following the procedures described in the supplemental methods. The steady-state inhibition constants (Ki app) and kinetics of inhibition (such as k2/K , koff, Kd, and tn) were determined following previously established protocols, are also outlined in the supplemental methods.
(§4) Ki app serves as an equilibrium constant, calculable from […] conditions and indicates the formation of the enzyme acyl E-S complex. […] Plotting the inverse initial velocities (1/V0) against inhibitory concentrations ([I]) facilitated fitting the data to a linear equation. The intersection, divided by the slope of the line, was defined as the observed Ki app.
Ki app (corrected)= Ki app (observed) / [ 1+ ([S]/KmNFC)] (2)

OXA-48 [5] = biological target: T1, OXA-48; test: Inhibition efficiency / onset of acylation (k2/K), nitrocefin reporter; format: biochemical; parameters: These primers amplified the blaOXA-48 gene without the signal peptide; GST (glutathione S-transferase, pGEX-6P-1) (N, cleaved yes); made in house; host or cells: E. coli BL21; conditions: for k2/K: nitrocefin reporter; for kinact/KI: pH 7.4, read-out: k2/K, nitrocefin reporter
Protocol: as §3, §4
k2/K = k2/kobs × [([S]/Km NCF) + 1] (3)

OXA-48 [6] = biological target: T1, OXA-48; test: Partition ratio / turnover number (tn), I/E for >90% inhibition; format: biochemical; parameters: These primers amplified the blaOXA-48 gene without the signal peptide; GST (glutathione S-transferase, pGEX-6P-1) (N, cleaved yes); made in house; host or cells: E. coli BL21; conditions: 15 min incubation, 500 nM enzyme
Protocol: as §3
The evaluation involved exposure to increasing concentrations of inhibitors plus 500 nM of enzyme, at different molar I/E ratios.

OXA-48 [7] = biological target: T1, OXA-48; test: Dissociation rate (koff) by jump dilution; t1/2 and Kd; format: biochemical; parameters: These primers amplified the blaOXA-48 gene without the signal peptide; GST (glutathione S-transferase, pGEX-6P-1) (N, cleaved yes); made in house; host or cells: E. coli BL21; conditions: for Kd: koff/kon; for residence time: read-out: t1/2 (residence time)
Protocol: as §3
The dissociation rate constant (koff) was determined using a “jump dilution” method in which OXA-48 enzyme activity was monitored over time as the BLI dissociates. […] Subsequently, the reaction mixture was diluted 10,000-fold dilution in the reaction buffer. […] Absorbance was recorded at 60-s intervals over a 2-h period at RT. The resulting reaction progress curve was fitted to equation 4, which includes the exponential function (6). […] From the fit, GraphPad Prism software, (MA, USA) also calculates the dissociation half-time (t1/2), in min.
koff was obtained directly from the dissociation experiment and kon was previously calculated, thus finally Kd was calculated as the fraction between koff and kon.
P= Vs x t + (V0-Vs) x [1– exp ^(-k^off x ^t)] / koff (4)

OXA-48 [8] = biological target: T1, OXA-48; parameters: These primers amplified the blaOXA-48 gene without the signal peptide; GST (glutathione S-transferase, pGEX-6P-1) (N, cleaved yes); made in house; host or cells: E. coli BL21; method as in earlier work; conditions: ref 5 Hecker et al.; cited from earlier work

T1 sequence (Q6XEC0 23-265 limits assumed): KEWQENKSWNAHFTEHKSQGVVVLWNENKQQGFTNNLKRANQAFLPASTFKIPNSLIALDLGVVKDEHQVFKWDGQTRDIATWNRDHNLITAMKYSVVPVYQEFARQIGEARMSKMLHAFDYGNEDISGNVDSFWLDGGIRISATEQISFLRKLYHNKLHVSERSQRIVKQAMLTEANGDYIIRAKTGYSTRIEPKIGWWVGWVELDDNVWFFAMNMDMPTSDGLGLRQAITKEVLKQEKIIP

| Structure (SMILES) | MIC (E. coli TG1; β-lactamase inhibitor alone) [µg/mL] | MIC ([1]; Escherichia coli) [µg/mL] | effect of ertapenem/BLI on bacterial growth [2] | MICs of inhibitor alone (range over strains) [2] [mg/L] | Ki (OXA-48 [4]) [nM] | k2/K (OXA-48 [5]) [M⁻¹ s⁻¹] | kinact/KI (OXA-48 [5]) [M⁻¹ s⁻¹] | tn (partition ratio, I:E) (OXA-48 [6]) | koff (OXA-48 [7]; jump dilution, read-out: koff) [s⁻¹] | Kd (OXA-48 [7]) [nM] | residence time (OXA-48 [7]) [min] | decrease of ertapenem MIC with BLI [2] | further results |
| --- | --- | --- | --- | --- | --- | --- | --- | --- | --- | --- | --- | --- | --- |
| CC1=C[C@@H]2CN(C(=O)N2OS(=O)(=O)O)[C@@H]1C(N)=O [Durlobactam, durlobactam] | 0.12 (≈ 0.433 µM) | 1 (≈ 3.61 µM) | totally inhibited bacterial growth | 0.12 to 2 | 103 ± 24 | 142000 ± 38000 | 140000 | 1 | 9.5e-06 | 0.07 ± 0.01 | 1220 ± 213 | – | MIC of inhibitor alone (range over isolates) ([3]; 18 clinical isolates): 0.25 to 4 mg/L |
| O=C(O)C[C@@H]1CC[C@H](NC(=O)Cc2cccs2)B(O)O1 [Vaborbactam, vaborbactam] | ≥ 128 | ≥ 128 | – | – | 43600 | – | – | >3,000 | – | – | 44.4 ± 1.6 | – | koff (OXA-48 [7]): 2.6 × 10^−4 ± .5 10^−4 s^−1 |
| O=C(O)c1c(F)ccc2c1OB(O)[C@@H]1C[C@H]21 [Xeruborbactam, xeruborbactam] | 32 (≈ 144 µM) | 16 (≈ 72.1 µM) | – | – | 18 ± 2 | 310000 | 313000 | 1 | 0.0002 | 0.63 | 57.7 ± 9.6 | 8–256 fold | higher inhibitory activity (Ki) for OXA-48 than avibactam (OXA-48 [8]): 96 fold; higher inhibitory activity (Ki) for OXA-48 than vaborbactam (OXA-48 [8]): 50,000 fold |
| NCCONC(=O)[C@@H]1CC[C@@H]2CN1C(=O)N2OS(=O)(=O)O [Nacubactam, nacubactam] | 2 (≈ 6.17 µM) | 2 (≈ 6.17 µM) | totally inhibited bacterial growth | 0.12 to 2 | > 800000 | – | 4.88 ± 2.11 | 70 | 0.0002 | 41000 | 57.7 ± 7.5 | – | decrease of meropenem MIC by BLI ([3]; clinical isolates): 0–32 fold |
| CC(C)(O/N=C(\C(=O)N[C@@H]1C(=O)N2C(C(=O)[O-])=C(C[n+]3ccccc3)CS[C@H]12)c1csc(N)n1)C(=O)O [CAZ, ceftazidime] | – | 16 (≈ 29.3 µM) | – | – | – | – | – | – | – | – | – | – | MIC (E. coli TG1; BL alone or BL/BLI: AVI, REL, TAN, DUR 4 mg/L, VAB, XER 8 mg/L, ZID, NAC 1:1): 0.25 µg/mL (≈ 0.457 µM); MIC (E. coli TG1; ceftazidime alone or with BLI at 4 mg/L): 0.12 µg/mL (≈ 0.22 µM); MIC ([1]; E. coli HB4 ΔompC/F (CTX-M-14), ceftazidime alone or with BLI at 4 mg/L): 16 µg/mL (≈ 29.3 µM) |
| NCCN[C@H]1CC[C@H](CC(=O)N[C@H]2Cc3cccc(C(=O)O)c3OB2O)CC1 [Taniborbactam, taniborbactam] | ≥ 128 | ≥ 128 | – | – | 75 ± 15 | – | – | 200 | 0.00023 | – | 50.2 ± 8.2 | 8–256 fold | reduction of cefepime MICs by BLI ([3]; clinical isolates): 2–512 fold |
